This experiment deals with HL-60. Kind of experiment: Inhibitory dose against HL60 human leukemic cells after incubation for 48 h. Format: functional. To be noted: HL-60, 48 h, read-out: ID50 (the source's name).

Consider `CCCCCCCCCCCCCCCC(=O)NCC(COP(=O)([O-])OCC[N+](C)(C)C)OC` (stereo unspecified), for which the IC50 came to 3320 nM.
With `CCCCCCCCCCCCCCCC(=O)NCC(COP(=O)([O-])OCC[N+](C)(C)C)OCC` (stereo unspecified) the figure was 2320 nM.
With `CCCCCCCCCCCCCCCCCC(=O)NCC(COP(=O)([O-])OCC[N+](C)(C)C)OC` (stereo unspecified) the figure was 2450 nM; with `CCCCCCCCCCCCCCCC(=O)NCC(O)COP(=O)([O-])OCC[N+](C)(C)C` (stereo unspecified), over 10000 nM; with `CCCCCCCCCCCCCCCCCC(=O)NCC(COP(=O)([O-])OCC[N+](C)(C)C)OCC` (stereo unspecified), 1640 nM.
Turning to `CCCCCCCCCCCCCCCCCCOCC(COP(=O)([O-])OCC[N+](C)(C)C)OC` (racemic) [EDELFOSINE], the IC50 stood at 2470 nM.

Source of the values: ChEMBL document CHEMBL1124292, “Synthesis and evaluation of neoplastic cell growth inhibition of 1-N-alkylamide analogues of glycero-3-phosphocholine” (1988).
